In patent publication US12398180B2, “Treatment of non-alcoholic fatty liver disease” (NURITAS LIMITED, priority 2019, dated 2025):
Read-outs that look alike come from different tables or passages of the source. Square brackets hold non-standard residues; d marks the D form. Peptide text beside a SMILES is read from it.

Tests used:
[1] = tested on: primary human hepatic stellate cells; assay: Anti-fibrotic effect in TGF-β stimulated primary hepatic stellate cells (ACTA2 staining); type: cell-based; settings: 10 μM
Protocol: The procedure was performed as described above for the CY5 labelled peptide imaging in HSkMCs with a few minor modifications. Primary hepatic stellate cells were investigated as they are considered to be the most relevant profibrogenic cells operating in acute and chronic liver diseases. The stellate cells were seeded directly onto the glass coverslips at a density of 5,000 cells/mL. After starvation, the cells were treated with pep_1E99R5 (5 ng/mL) or Elafibranor (10 μM) for 6 hours. The cells were washed and subsequently treated with 5 ng/ml […] (Bio Techne, Minneapolis, MN, United States) for 24 hours to induce fibrosis. The cells were fixed and stained with ACTA2 antibody (Assay Genie, Dublin, Ireland), a marker of fibroblast activation.
The confocal images were analysed with custom Python scripts using the scikit-image library version 0.15. The cells and nuclei were segmented using a simple threshold computed using the mean value of the image. Using the Nuclei as a seed we separated the cells in the cell mask using watershed segmentation. Cell size was then quantified in pixels. [Stéfan van der Walt, Johannes L. Schönberger, Juan Nunez-Iglesias, Frangois Boulogne, Joshua D. Warner, Neil Yager, Emmanuelle Gouillart, Tony Yu and the scikit-image contributors. scikit-image: Image processing in Python. PeerJ 2:e453 (2014)

Human primary cells = assay: Cytotoxicity in primary human cell-based systems (SRB / alamarBlue); settings: at the concentration tested
Protocol: Systems are derived from either single cell types or co-culture systems. Adherent cell types are cultured in 96 or 384-well plates until confluence, followed by the addition of PBMC (SAg and LPS systems). The BT system consists of CD19+ B cells co-cultured with PBMC and stimulated with a BCR activator and low levels of TCR stimulation. Test agents prepared in either DMSO (small molecules; final concentration s 0.1%) or PBS (biologics) are added at the indicated concentrations 1-hr before stimulation, and remain in culture for 24 h or as otherwise indicated (48 h, MyoF system; 72 h, BT system (soluble readouts); 168 h, BT system (secreted IgG)). […] Soluble factors from supernatants are quantified using either HTRF® detection, bead-based multiplex immunoassay or capture ELISA. Overt adverse effects of test agents on cell proliferation and viability (cytotoxicity) are detected by sulforhodamine B (SRB) staining, for adherent cells, and alamarBlue® reduction for cells in suspension. For proliferation assays, individual cell types are cultured at subconfluence and measured at time points optimized for each system (48 h: 3C and CASM3C systems; 72 h: BT and HDF3CGF systems; 96 h: SAg system). […]

C57BL/6 mice = assay: Acetaminophen (APAP)-induced acute liver injury mouse model, ALT/AST; type: in vivo; settings: inferred from ALT/AST time course
Protocol: Animals for Acetaminophen (APAP)-induced Acute Liver Injury Mouse Model: All animal procedures were performed by Melior Discovery (Exton, PA, USA) in accordance with Institutional Animal Care and Use (IACUC) guidelines in an AAALAC-accredited facility. […] Studies were performed with 8-week-old male C57BL/6 mice obtained from the Charles River Laboratory and were randomly assigned to the treatment groups based on body mass. Mice were acclimated for 7 days and housed 4 per cage on a 12-hour light/dark cycle with ad libitum access to standard rodent chow and water.

[2] = in humans; cited from earlier work
lipoproteins = settings: binding to lipoproteins; cited from earlier work
[3] = tested on: human skeletal muscle cells; assay: Glucose uptake in skeletal muscle cells; type: cell-based; settings: compared with control (FIG. 5)
PK profile (half-life) = settings: in vivo

With CSc1ccc(C(=O)/C=C/c2cc(C)c(OC(C)(C)C(=O)O)c(C)c2)cc1 [Elafibranor] the “anti-fibrotic effect in stimulated stellate cells” value [1] was “anti-fibrotic effects”.

In the case of CC(C)C[C@H](NC(=O)[C@@H]1CCCN1C(=O)[C@H](CCCCN)NC(=O)CNC(=O)[C@H](C)NC(=O)[C@H](CCC(=O)O)NC(=O)[C@H](CC(=O)O)NC(=O)[C@H](CCCCN)NC(=O)[C@@H](N)Cc1c[nH]c2ccccc12)C(=O)N[C@H](C(=O)N[C@@H](CCCCN)C(=O)O)C(C)C [pep_260] (H-WKDEAGKPLVK-OH; N-terminus and C-terminus assumed), the cytotoxicity (Human primary cells) was “not cytotoxic” and the “duration of potent functionality in mice” value (C57BL/6 mice) was 2 h.

In the case of NC(=O)CC[C@@H]1NC(=O)[C@H](Cc2ccccc2)NC(=O)[C@H](Cc2ccc(O)cc2)NC(=O)[C@@H](N)CSSC[C@@H](C(=O)N2CCC[C@H]2C(=O)N[C@@H](CCCN=C(N)N)C(=O)NCC(N)=O)NC(=O)[C@H](CC(N)=O)NC1=O [vasopressin], the half-life [2] is given as 0.167 to 0.583 h.

For C[C@@H](O)[C@@H]1NC(=O)[C@H](CCCCN)NC(=O)[C@@H](Cc2c[nH]c3ccccc23)NC(=O)[C@H](Cc2ccccc2)NC(=O)[C@@H](NC(=O)[C@H](N)Cc2ccccc2)CSSC[C@@H](C(=O)N[C@H](CO)[C@@H](C)O)NC1=O [octreotide], the half-life [2] is given as “about 100 min” and the fraction unbound (lipoproteins) is given as 0.65.

In the case of “1(clac)wKE(Me)EC1GK(Me)PLVk-OH (Ac-[dW]KEXCGKXLV[dK]-OH; thioether (positions not given here); not fully specified (residues 4, 8, bridges); printed as 1(clac)wKE(Me)EC1GK(Me)PLVk-OH) [SEQUENCE ID NO: 3]”, the “glucose uptake in human skeletal muscle cells in-vitro” value [3] was “significantly increases” and the stability in-vivo (Stability in-vivo) was “enhanced stability”.

Compound CC(C)C[C@H](NC(=O)[C@@H]1CCCN1C(=O)[C@H](CCCCN)NC(=O)CNC(=O)[C@@H](C)NC(=O)[C@H](CCC(=O)O)NC(=O)[C@H](CC(=O)O)NC(=O)[C@@H](CCCCN)NC(=O)[C@H](N)Cc1c[nH]c2ccccc12)C(=O)N[C@@H](C(=O)N[C@H](CCCCN)C(=O)O)C(C)C [SEQ ID 2, {d}W{d}KDE{d}AGKPL{d}V{d}K] (H-[dW][dK]DE[dA]GKPL[dV][dK]-OH; N-terminus and C-terminus assumed) has a half-life (PK profile (half-life)) of 1.55 h.
